Measurements as given in PubChem BioAssay (NCI).
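48-hour exposure; five concentrations; linearly interpolated endpoints. GI50: concentration for 50% inhibition of growth. TGI denotes the concentration required for complete inhibition of growth.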

Assays:
Test in all cases: DTP human tumour cell line panel, 48 h
[1] = test system: HL-60(TB) leukemia
[2] = test system: BT-549 breast
[3] = test system: CCRF-CEM leukemia
[4] = test system: NCI-H460 lung
[5] = test system: SNB-75 CNS
[6] = test system: SN12C renal
[7] = test system: HCT-116 colon
[8] = test system: SF-295 CNS
[9] = test system: IGROV1 ovarian
[10] = test system: NCI-H23 lung

Compound | GI50 [1] [nM] | TGI [1] [nM] | GI50 [2] [nM] | TGI [2] [nM] | GI50 [3] [nM] | TGI [3] [nM] | GI50 [4] [nM] | TGI [4] [nM] | GI50 [5] [nM] | TGI [5] [nM] | GI50 [6] [nM] | TGI [6] [nM] | GI50 [7] [nM] | TGI [7] [nM] | GI50 [8] [nM] | TGI [8] [nM] | GI50 [9] [nM] | TGI [9] [nM] | GI50 [10] [nM] | TGI [10] [nM]
CC(=O)O[C@@H]1C2=C(C)C3(CC3)[C@@](C)(O)C(=O)C2=C[C@@]1(C)CO | 414 | > 22500 | 509 | 2790 | 475 | > 22500 | 296 | 1080 | 217 | 1380 | 1860 | 13900 | 424 | > 100000 | 406 | 9870 | 598 | 5080 | 473 | 2660
C[C@@H](CS[As](C)C)C(=O)N1CCC[C@H]1C(=O)O | 99.4 |  | 487 | 2310 | 142 | 643 | 1400 | 13700 | 512 | 2250 | 200 | 1030 | 167 | > 100000 | 1790 | 5320 | 439 | 3210 | 359 | 2330
COc1ccc(/C=C2\COc3ccc(O)c(O)c3C2=O)cc1OC | 440 | 5290 | 1320 | 3250 | 377 | 12100 | 1830 | 5020 | 1980 | 29100 | 1390 | 5160 | 1470 | 3610 | 2700 | 7180 | 840 | 3530 | 1890 | 5560
COc1c(B(O)O)cccc1-c1nc2ccc3[nH]ncc3c2c2c1CCCC2 | 658 | 4870 | 122 | 2560 | 544 | > 49700 | 1430 | 11200 | 30.7 | 382 | 1770 | 42700 | 473 | > 96700 | 1890 | 12600 | 2250 | 14300 | 2480 | 9280
Cc1ccc(NC(=S)C#N)c(C)c1 |  | > 71200 |  | > 100000 |  | > 100000 |  | > 100000 |  | > 100000 |  | > 100000 |  | > 100000 |  | > 100000 |  | > 100000 |  | > 100000
CC(C)(C)C(=O)c1c(C(F)(F)F)n([O-])c2cc(Cl)c(Cl)cc2[n+]1=O | 188 | 446 | 769 | 2110 | 619 | 1190 | 279 | 767 | 189 | 408 | 778 | 2090 | 1580 | 2930 | 505 | 973 | 77 | 213 | 849 | 2300
